Legend:
[1] = target: T1, kinase domain protein of RC kinase (RCK) (Homo sapiens, UniProt Q56UN5); assay: Kinase competition binding assay (Kd, qPCR readout), RC kinase; conditions: Kd class, read-out: RCK Activity Level
T1 construct: made in house; host or cells: E. coli BL21-derived host (T7 phage) or HEK-293
T1 sequence (Q56UN5 1061-1324 limits assumed): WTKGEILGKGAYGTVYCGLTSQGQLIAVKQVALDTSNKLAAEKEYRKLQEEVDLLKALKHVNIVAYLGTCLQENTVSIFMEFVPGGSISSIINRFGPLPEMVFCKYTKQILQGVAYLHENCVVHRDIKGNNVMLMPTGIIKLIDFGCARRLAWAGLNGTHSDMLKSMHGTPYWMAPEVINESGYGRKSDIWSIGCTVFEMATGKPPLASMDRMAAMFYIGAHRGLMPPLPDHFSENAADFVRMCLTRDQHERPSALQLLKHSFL
Procedure, shortened: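 Competition binding: DNA-tagged kinase (T7 phage or HEK-293-expressed) plus immobilized biotinylated ligand beads and compound, 1 h at room temperature, 1% DMSO. Bead-bound kinase eluted and quantified by qPCR. Kd from 11-point 3-fold dilution, top 30,000 nM, retested lower if below 0.5 nM.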

JAK3 = target: T2, JAK3 (Homo sapiens, UniProt P52333); assay: Kinase competition binding assay (Kd, qPCR readout), JAK3; conditions: for Kd: read-out: JAK3 Activity Level; for RCK:JAK3 selectivity ratio: ratio Kd (JAK3): Kd (RCK)
T2 construct: made in house; host or cells: E. coli BL21-derived host (T7 phage) or HEK-293
Procedure, shortened: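 Kd values were derived from 11-point, 3-fold compound series at 1% DMSO, usually topping at 30,000 nM, with retesting from a lower top when under 0.5 nM. It competed with bead-immobilized ligand for 1 h at room temperature, and the captured kinase was measured by qPCR after elution.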

JAK2 = target: T3, JAK2 (Homo sapiens, UniProt O60674); assay: Kinase competition binding assay (Kd, qPCR readout), JAK2; conditions: for Kd: Kd class, JAK2, read-out: JAK2 Activity Level; for RCK:JAK2 selectivity ratio: ratio Kd (JAK2): Kd(RCK)
T3 construct: made in house; host or cells: E. coli BL21-derived host (T7 phage) or HEK-293
Procedure, shortened: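 Competition binding: DNA-tagged kinase (T7 phage or HEK-293-expressed), immobilized biotinylated ligand beads and compound in SeaBlock/PBS/Tween/DTT buffer, 1 hour at room temperature; bound kinase eluted and quantified by qPCR. Kd from 11-point 3-fold dilution, top 30,000 nM typically, final DMSO 1%.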

T2 sequence (P52333 811-1124 limits assumed): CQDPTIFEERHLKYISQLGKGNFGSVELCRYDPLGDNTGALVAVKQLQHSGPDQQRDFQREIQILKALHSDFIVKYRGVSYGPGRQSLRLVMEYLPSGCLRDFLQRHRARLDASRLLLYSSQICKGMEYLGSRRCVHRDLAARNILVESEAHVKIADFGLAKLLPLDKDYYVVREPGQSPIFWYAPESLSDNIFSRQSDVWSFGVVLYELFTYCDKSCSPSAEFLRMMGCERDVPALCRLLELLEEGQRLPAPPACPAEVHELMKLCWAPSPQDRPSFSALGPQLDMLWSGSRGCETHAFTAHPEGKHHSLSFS
T3 sequence (O60674 840-1132 limits assumed): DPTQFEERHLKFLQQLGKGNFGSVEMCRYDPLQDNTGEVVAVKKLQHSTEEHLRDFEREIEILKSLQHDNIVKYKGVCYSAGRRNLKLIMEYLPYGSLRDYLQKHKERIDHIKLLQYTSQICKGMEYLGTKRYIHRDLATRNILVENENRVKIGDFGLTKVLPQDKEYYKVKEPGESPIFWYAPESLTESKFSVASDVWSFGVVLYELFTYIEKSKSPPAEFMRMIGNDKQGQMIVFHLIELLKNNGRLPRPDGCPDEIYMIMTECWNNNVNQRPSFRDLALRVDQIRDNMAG

Row | Compound | Kd [1] [nM] | Kd (JAK3; Kd class, JAK3) [nM] | Kd (JAK2) [nM] | RCK:JAK2 selectivity ratio (JAK2) | JAK3 Activity Level (JAK3; Kd class, JAK3) | RCK:JAK3 selectivity ratio (JAK3)
1 | NC(=O)c1c(Nc2cnc(N3CCOCC3)c(Cl)c2)n[nH]c1NCc1ccc(O)cc1 [reference compound] | < 50 | 50 to 100 | < 50 | C (C represents 1<Kd (JAK2): Kd (RCK)<10) |  | C (C represents 1<Kd (JAK3): Kd (RCK)<10)
2 | CN1CCN(c2ccc(Nc3n[nH]c(NCc4ccc(O)cc4)c3C(N)=O)cc2)CC1 [reference compound] | < 50 | < 50 | < 50 | C (C represents 1<Kd (JAK2): Kd (RCK)<10) |  | C (C represents 1<Kd (JAK3): Kd (RCK)<10)
3 | NC(=O)c1c(Nc2ccc(-c3cccnc3)cc2)n[nH]c1NCc1ccc(O)cc1 [reference compound] | < 50 | < 50 | < 50 | C (C represents 1<Kd (JAK2): Kd (RCK)<10) |  | C (C represents 1<Kd (JAK3): Kd (RCK)<10)
4 | CN(C)c1ccc(Nc2n[nH]c(NCc3ccc(O)cc3)c2C(N)=O)cc1 [reference compound] | 100 to 1000 | 100 to 1000 | < 50 | D (D represents Kd(JAK2): Kd (RCK)<1) |  | C (C represents 1<Kd (JAK3): Kd (RCK)<10)
5 | NC(=O)c1c(Nc2ccc(NC(=O)c3ccc(F)cc3)cc2)n[nH]c1NCc1ccc(O)cc1 [reference compound] | < 50 | < 50 | < 50 | C (C represents 1<Kd (JAK2): Kd (RCK)<10) |  | C (C represents 1<Kd (JAK3): Kd (RCK)<10)
6 | NC(=O)c1c(Nc2ccc(-c3cc[nH]n3)cc2)n[nH]c1NCc1ccc(O)cc1 [reference compound] | < 50 | < 50 | < 50 | D (D represents Kd(JAK2): Kd (RCK)<1) |  | C (C represents 1<Kd (JAK3): Kd (RCK)<10)
7 | COc1ccccc1C(=O)Nc1ccc(Nc2n[nH]c(NCc3ccc(O)cc3)c2C(N)=O)cc1 [reference compound] | < 50 | < 50 | < 50 | B (B represents 10<Kd(JAK2): Kd (RCK)<100) |  | B (B represents 10<Kd (JAK3): Kd (RCK)<100)
8 | COc1cccc(C(=O)Nc2ccc(Nc3n[nH]c(NCc4ccc(O)cc4)c3C(N)=O)cc2)c1 [reference compound] | < 50 | < 50 | < 50 | C (C represents 1<Kd (JAK2): Kd (RCK)<10) |  | B (B represents 10<Kd (JAK3): Kd (RCK)<100)
9 | COc1ccc(C(=O)Nc2ccc(Nc3n[nH]c(NCc4ccc(O)cc4)c3C(N)=O)cc2)cc1 [reference compound] | < 50 | < 50 | < 50 | B (B represents 10<Kd(JAK2): Kd (RCK)<100) |  | B (B represents 10<Kd (JAK3): Kd (RCK)<100)
10 | CC(C)C1CCN(c2ccc(Nc3n[nH]c(NCc4ccc(O)cc4)c3C(N)=O)cc2)CC1 [reference compound] | 50 to 100 | 100 to 1000 | 100 to 1000 | C (C represents 1<Kd (JAK2): Kd (RCK)<10) |  | C (C represents 1<Kd (JAK3): Kd (RCK)<10)
11 | NC(=O)c1c(Nc2ccc(N3CCOCC3=O)cc2)n[nH]c1NCc1ccc(O)cc1 [reference compound] | < 50 | < 50 | < 50 | D (D represents Kd(JAK2): Kd (RCK)<1) |  | C (C represents 1<Kd (JAK3): Kd (RCK)<10)
12 | N#CCc1ccc(Nc2n[nH]c(NCc3ccc(O)cc3)c2C(N)=O)cc1 [reference compound] | < 50 | < 50 | < 50 | D (D represents Kd(JAK2): Kd (RCK)<1) |  | C (C represents 1<Kd (JAK3): Kd (RCK)<10)
13 | NC(=O)c1c(Nc2ccc(NC(=O)c3ccc(C(F)(F)F)cc3)cc2)n[nH]c1NCc1ccc(O)cc1 [reference compound] | 50 to 100 | 100 to 1000 | 100 to 1000 | C (C represents 1<Kd (JAK2): Kd (RCK)<10) |  | C (C represents 1<Kd (JAK3): Kd (RCK)<10)
14 | CC1CCN(c2ccc(Nc3n[nH]c(NCc4ccc(O)cc4)c3C(N)=O)cc2)CC1 [reference compound] | < 50 | 50 to 100 | < 50 | D (D represents Kd(JAK2): Kd (RCK)<1) |  | C (C represents 1<Kd (JAK3): Kd (RCK)<10)

Continued, in another order:

Row | Kd [1] [nM] | Kd (JAK3; Kd class, JAK3) [nM] | Kd (JAK2) [nM] | RCK:JAK2 selectivity ratio (JAK2) | JAK3 Activity Level (JAK3; Kd class, JAK3) | Compound | RCK:JAK3 selectivity ratio (JAK3)
15 | < 50 | < 50 | < 50 | D (D represents Kd(JAK2): Kd (RCK)<1) |  | NC(=O)c1c(Nc2ccc(N3CCOCC3)cc2)n[nH]c1NCc1ccc(O)cc1 [reference compound] | C (C represents 1<Kd (JAK3): Kd (RCK)<10)
16 | < 50 | < 50 | < 50 | D (D represents Kd(JAK2): Kd (RCK)<1) |  | C[C@@H]1CN(c2ccc(Nc3n[nH]c(NCc4ccc(O)cc4)c3C(N)=O)cc2)C[C@H](C)O1 [reference compound] | C (C represents 1<Kd (JAK3): Kd (RCK)<10)
17 | < 50 | < 50 | < 50 | D (D represents Kd(JAK2): Kd (RCK)<1) |  | NC(=O)c1c(Nc2ccc(-n3cccc3)cc2)n[nH]c1NCc1ccc(O)cc1 [reference compound] | C (C represents 1<Kd (JAK3): Kd (RCK)<10)
18 | < 50 | < 50 | < 50 | D (D represents Kd(JAK2): Kd (RCK)<1) |  | NC(=O)c1c(Nc2ccc(N3CCOCC3)nc2)n[nH]c1NCc1ccc(O)cc1 [reference compound] | C (C represents 1<Kd (JAK3): Kd (RCK)<10)
19 | < 50 | < 50 | < 50 | D (D represents Kd(JAK2): Kd (RCK)<1) |  | NC(=O)c1c(Nc2ccc(-c3ccccn3)cc2)n[nH]c1NCc1ccc(O)cc1 [reference compound] | C (C represents 1<Kd (JAK3): Kd (RCK)<10)
20 | < 50 |  | < 50 | D (D represents Kd(JAK2): Kd (RCK)<1) | .A | NC(=O)c1c(Nc2ccc(N3CCOCC3)cn2)n[nH]c1NCc1ccc(O)cc1 [reference compound] | D (D represents Kd (JAK3): Kd(RCK)<1)
21 | < 50 | < 50 | < 50 | D (D represents Kd(JAK2): Kd (RCK)<1) |  | Cc1cc(Nc2n[nH]c(NCc3ccc(O)cc3)c2C(N)=O)cnc1N1CCOCC1 [reference compound] | C (C represents 1<Kd (JAK3): Kd (RCK)<10)
22 | < 50 | < 50 | < 50 | D (D represents Kd(JAK2): Kd (RCK)<1) |  | Cc1cc(Nc2n[nH]c(NCc3ccc(O)cc3)c2C(N)=O)cnc1N1CCN(C(C)C)CC1 [reference compound] | C (C represents 1<Kd (JAK3): Kd (RCK)<10)
23 | < 50 | < 50 | < 50 | D (D represents Kd(JAK2): Kd (RCK)<1) |  | Cc1cc(Nc2n[nH]c(NCc3ccc(O)cc3)c2C(N)=O)cnc1N1CCN(C)CC1 [reference compound] | C (C represents 1<Kd (JAK3): Kd (RCK)<10)
24 | < 50 | < 50 | < 50 | D (D represents Kd(JAK2): Kd (RCK)<1) |  | C[C@@H]1CN(c2ccc(Nc3n[nH]c(NCc4ccc(O)cc4)c3C(N)=O)cc2Cl)C[C@H](C)O1 [reference compound] | C (C represents 1<Kd (JAK3): Kd (RCK)<10)
25 | < 50 | < 50 | < 50 | D (D represents Kd(JAK2): Kd (RCK)<1) |  | NC(=O)c1c(Nc2ccc(N3CCC(N4CCCC4)CC3)nc2)n[nH]c1NCc1ccc(O)cc1 [reference compound] | C (C represents 1<Kd (JAK3): Kd (RCK)<10)
26 | < 50 | < 50 | < 50 | D (D represents Kd(JAK2): Kd (RCK)<1) |  | NC(=O)c1c(Nc2ccc(CN3CCOCC3)cc2)n[nH]c1NCc1ccc(O)cc1 [reference compound] | D (D represents Kd (JAK3): Kd(RCK)<1)
27 | < 50 | < 50 | < 50 | D (D represents Kd(JAK2): Kd (RCK)<1) |  | COc1cccc(Nc2n[nH]c(NCc3ccc(O)cc3)c2C(N)=O)c1 [reference compound] | D (D represents Kd (JAK3): Kd(RCK)<1)
